# From patent US8440666B2, “Pyridazinone compounds and P2X7 receptor inhibitors” (Nissan Chemical Industries, Ltd., priority 2007, dated 2013)
# Target: T1, Human P2X7 (hP2X7) receptor (Homo sapiens, UniProt Q99572)
# T1 construct: myc-His (from the pcDNA3.1/myc-HisA vector); expressed in transfected cells
# T1 sequence (Q99572 1-595): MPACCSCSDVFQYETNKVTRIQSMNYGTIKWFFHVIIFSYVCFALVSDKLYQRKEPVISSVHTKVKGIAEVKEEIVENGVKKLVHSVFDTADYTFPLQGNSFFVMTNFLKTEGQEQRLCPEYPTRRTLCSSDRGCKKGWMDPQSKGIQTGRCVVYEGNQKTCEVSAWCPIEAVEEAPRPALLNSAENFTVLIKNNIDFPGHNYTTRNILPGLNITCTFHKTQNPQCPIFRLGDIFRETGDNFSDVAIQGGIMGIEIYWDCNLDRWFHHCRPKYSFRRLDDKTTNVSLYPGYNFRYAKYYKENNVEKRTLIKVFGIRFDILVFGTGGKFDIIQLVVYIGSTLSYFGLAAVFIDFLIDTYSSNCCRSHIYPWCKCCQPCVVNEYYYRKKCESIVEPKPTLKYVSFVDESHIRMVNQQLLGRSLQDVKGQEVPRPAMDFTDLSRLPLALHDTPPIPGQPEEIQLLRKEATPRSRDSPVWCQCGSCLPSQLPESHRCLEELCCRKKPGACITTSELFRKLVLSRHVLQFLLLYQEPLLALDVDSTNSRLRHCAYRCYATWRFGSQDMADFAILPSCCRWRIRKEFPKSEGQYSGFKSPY
# Assay: Dye assay: BzATP-induced Yo-Pro-1 uptake in HEK293 cells stably expressing hP2X7
# Format: cell-based
# Details: BzATP 0.1 mM, Yo-Pro-1 2 μM, 30 min pre-treatment, 90 min incubation
# Source text: Human P2X7 (hP2×7) was cloned from a normal human brain total RNA library by reverse transcription (using SuperScript II (Invitrogen)) and PCR (using KOD-plus-(TOYOBO)). PCR primers were designed according to hP2X7 sequence registered in GENBANK with a putative amino acid sequence consisting of 595 amino acid residues. The PCR fragments were inserted into pcDNA3.1/myc-HisA vector (Invitrogen) and sequenced for confirmation.
# HEK293 cells were transfected with hP2×7/pcDNA3.1/myc-HisA by lipofection, and 1 day later, the cells were treated with 1 mg/mL G418, and resistant cells were selected by appropriately dilution. The resistant cells were cloned by reseeding at a low density.
# P2X7 receptor antagonists were screened by a dye uptake assay using HEK293 cells stably expressing hP2×7. Cells were plated on a type I collagen-coated black/clear bottom 96-well plate at 20000 cells/well and a day later, treated with varying concentrations of various test compounds for 30 minutes, then treated with a dye (Yo-Pro-1) (final concentration 2 μM) and BzATP (final concentration 0.1 mM) and incubated for 90 minutes. Then, the fluorescence (indicating the BzATP-induced Yo-Pro-1 uptake mediated by the P2X7 receptor) was measured with a microplate reader (excitation wavelength: 485 nm, emission wavelength: 535 nm). The % inhibition rates were calculated and plotted against the logarithms of the concentrations to determine IC50.
row,IC50,SMILES
1,2 nM,CC(NC(=O)Cn1ncc(N[C@@H]2C[C@@H]3C[C@H]([C@H]2C)C3(C)C)c(Cl)c1=O)c1ccnnc1Cl (some centres unmarked) [compound 439]
2,5.6 nM,Cc1cc(C(C)NC(=O)Cn2ncc(N[C@@H]3C[C@@H]4C[C@H]([C@H]3C)C4(C)C)c(Cl)c2=O)c(Cl)nn1 (some centres unmarked) [compound 443]
3,1.7 nM,COc1nnc(Cl)cc1C(C)NC(=O)Cn1ncc(N[C@@H]2C[C@@H]3C[C@H]([C@H]2C)C3(C)C)c(Cl)c1=O (some centres unmarked) [compound 438]

# Same assay, conditions: BzATP (0.1 mM)-induced Yo-Pro-1 uptake, compounds 30 min pre-treatment, 90 min incubation
row,SMILES,IC50
1,CC(NC(=O)Cn1ncc(NC23CC4CC(CC2C4)C3)c(Cl)c1=O)c1ccncc1Cl (centres unmarked) [compound 354],2.6 nM
2,O=C(Cn1ncc(NC2C3CC4CC(C3)CC2C4)c(Br)c1=O)NCc1ccncc1 (centres unmarked) [compound 74],22 nM
3,C[C@@H]1[C@H]2C[C@@H](C[C@H]1Nc1cnn(CC(=O)NCc3ccnc(C#N)c3)c(=O)c1Cl)C2(C)C [compound 254],27 nM
4,C[C@@H]1[C@H]2C[C@@H](C[C@H]1Nc1cnn(CC(=O)NCc3ccncc3OCC#N)c(=O)c1Cl)C2(C)C [Synthetic Example 415],39 nM
5,C[C@@H]1[C@H]2C[C@@H](C[C@H]1Nc1cnn(CC(=O)NCc3ccnnc3)c(=O)c1Cl)C2(C)C [compound 293],3.5 nM
6,"C[C@@H]1[C@H]2C[C@@H](C[C@H]1Nc1cnn(-c3cccc(C(=O)NCC4(O)CCCCCC4)c3)c(=O)c1Br)C2(C)C [Synthetic Example 409, 3-[5-Bromo-6-oxo-4-{[(1R,2R,3R,5S)-2,6,6-trimethylbicyclo[3.1.1]hept-3-yl]amino}pyridazin-1(6H)-yl]-N-[(1-hydroxycycloheptyl)methyl]benzamide]",71 nM
7,C[C@@H]1[C@H]2C[C@@H](C[C@H]1Nc1cnn(CC(=O)NC(CCO)c3ccncc3)c(=O)c1Cl)C2(C)C (some centres unmarked) [compound 253],36 nM
8,CN(C)c1cnccc1CNC(=O)Cn1ncc(N[C@@H]2C[C@@H]3C[C@@H](C3(C)C)[C@]2(C)O)c(Cl)c1=O [compound 362],3.1 nM
9,CC1(C)[C@H]2CC[C@@H](CNc3cnn(CC(=O)NCc4ccncc4)c(=O)c3Br)[C@@H]1C2 [compound 54],26 nM
10,CC(NC(=O)Cn1ncc(NC23CC4CC(CC2C4)C3)c(Br)c1=O)c1ccnnc1 (centres unmarked) [compound 348],26 nM
11,"C[C@@H]1[C@H]2C[C@@H](C[C@H]1Nc1cnn(C3(C(=O)NCc4ccncc4)CCC3)c(=O)c1Br)C2(C)C [Synthetic Example 420, 1-[5-Bromo-6-oxo-4-{[(1R,2R,3R,5S)-2,6,6-trimethylbicyclo[3.1.1]hept-3-yl]amino}pyridazin-1(6H)-yl]-N-(pyridin-4-ylmethyl)cyclobutanecarboxamide]",120 nM
12,"C[C@@H]1[C@H]2C[C@@H](C[C@H]1Nc1cnn(-c3cccc(C(=O)NCc4ccncc4)c3)c(=O)c1Br)C2(C)C [Synthetic Example 162, 3-{5-Bromo-6-oxo-4-[(1R,2R,3R,5S)-2,6,6-trimethylbicyclo[3.1.1]hept-3-ylamino]pyridazin-1(6H)-yl}-N-(pyridin-4-ylmethyl)benzamide]",51 nM
13,CCOc1nn(CC(=O)c2ccc(N(CC)CC)cc2)c(=O)c(Cl)c1N[C@@H]1C[C@@H]2C[C@H]([C@H]1C)C2(C)C [Synthetic Example 140],15 nM
14,CC(NC(=O)Cn1ncc(N[C@@H]2C[C@@H]3C[C@@H](C3(C)C)[C@]2(C)O)c(Cl)c1=O)c1ccncc1Cl (some centres unmarked) [compound 363],2.8 nM
15,C[C@@H]1[C@H]2C[C@@H](C[C@H]1Nc1cnn(CC(=O)NCC3CCOCC3)c(=O)c1Cl)C2(C)C [compound 232],37 nM
16,C[C@@H](NC(=O)Cn1ncc(NC2C3CCCC2CCC3)c(Cl)c1=O)c1ccncc1 (some centres unmarked) [compound 369],2.1 nM
17,CCC(NC(=O)Cn1ncc(N[C@@H]2C[C@@H]3C[C@@H](C3(C)C)[C@]2(C)O)c(Cl)c1=O)c1ccncc1 (some centres unmarked) [compound 360],14 nM

# Further lines, results first:
row,IC50,SMILES
1,27 nM,"C[C@@H]1[C@H]2C[C@@H](C[C@H]1Nc1cnn(CC(=O)NC(CC(N)=O)c3ccncc3)c(=O)c1Br)C2(C)C (stereo partly drawn) [Synthetic Example 428, 3-({[5-Bromo-6-oxo-4-{[(1R,2R,3R,5S)-2,6,6-trimethylbicyclo[3.1.1]hept-3-yl]amino}pyridazin-1(6H)-yl]acetyl}amino)-3-(pyridin-4-yl)propanamide]"
2,3.9 nM,CC(NC(=O)Cn1ncc(N[C@@H]2C[C@@H]3C[C@H]([C@H]2C)C3(C)C)c(Cl)c1=O)c1ccnc(F)c1 (some centres unmarked) [compound 265]
3,57 nM,COc1cc(CNC(=O)Cn2ncc(N[C@@H]3C[C@@H]4C[C@H]([C@H]3C)C4(C)C)c(Br)c2=O)ccn1 [compound 104]
4,44 nM,C[C@@H]1[C@H]2C[C@@H](C[C@H]1Nc1cnn(CC(=O)NCc3cscn3)c(=O)c1Br)C2(C)C [compound 106]
5,21 nM,C[C@@H]1[C@H]2C[C@@H](C[C@H]1Nc1cnn(CC(=O)NCc3cnccn3)c(=O)c1Br)C2(C)C [compound 14]
6,77 nM,"CCN(CC)c1ccc(C(Cn2ncc(N[C@@H]3C[C@@H]4C[C@H]([C@H]3C)C4(C)C)c(Br)c2=O)=NOC)cc1 [Synthetic Example 159, 4-Bromo-2-{2-[4-(diethylamino)phenyl]-2-(methoxyimino)ethyl}-5-[(1R,2R,3R,5S)-2,6,6-trimethylbicyclo[3.1.1]hept-3-ylamino]pyridazin-3(2H)-one]"
7,47 nM,"C[C@@H]1[C@H]2C[C@@H](C[C@H]1Nc1cnn(CC(=O)NC(C(N)=O)c3ccccc3)c(=O)c1Br)C2(C)C (stereo partly drawn) [Synthetic Example 404, N-(2-Amino-2-oxo-1-phenylethyl)-2-[5-bromo-6-oxo-4-{[(1R,2R,3R,5S)-2,6,6-trimethylbicyclo[3.1.1]hept-3-yl]amino}pyridazin-1(6H)-yl]acetamide]"
8,31 nM,C[C@@H]1[C@H]2C[C@@H](C[C@H]1Nc1cnn(CC(=O)NCc3ccnc(C#N)c3)c(=O)c1Br)C2(C)C [compound 219]
9,37 nM,"C[C@@H]1[C@H]2C[C@@H](C[C@H]1Nc1cnn(CC(=O)NCc3ccncc3)c(=O)c1C#N)C2(C)C [Synthetic Example 387, 2-[5-Cyano-6-oxo-4-{[(1R,2R,3R,5S)-2,6,6-trimethylbicyclo[3.1.1]hept-3-yl]amino}pyridazin-1(6H)-yl]-N-(pyridin-4-ylmethyl)acetamide]"
10,32 nM,CC(NC(=O)Cn1ncc(N[C@@H]2C[C@@H]3C[C@H]([C@H]2C)C3(C)C)c(Br)c1=O)c1ccc(Cl)cc1 (some centres unmarked) [compound 197]
11,84 nM,C[C@@H]1[C@H]2C[C@@H](C[C@H]1Nc1cnn(CC(=O)Nc3nc(-c4ccncc4)cs3)c(=O)c1Cl)C2(C)C [compound 226]
12,64 nM,C[C@@H]1[C@H]2C[C@@H](C[C@H]1Nc1cnn(CC(=O)Nc3ccc(N(C)C)cc3)c(=O)c1Br)C2(C)C [compound 94]
13,4.2 nM,C[C@@H]1[C@H]2C[C@@H](C[C@H]1Nc1cnn(CC(=O)NCc3ccncc3)c(=O)c1Cl)C2(C)C [compound 135]
14,14 nM,C[C@@H]1[C@H]2C[C@@H](C[C@H]1Nc1cnn(CC(=O)NCc3ccncn3)c(=O)c1Br)C2(C)C [compound 103]
15,86 nM,C[C@@H]1[C@H]2C[C@@H](C[C@H]1Nc1cnn(CC(=O)NCCc3ccccc3)c(=O)c1Br)C2(C)C [compound 6]
16,62 nM,C[C@@H]1[C@H]2C[C@@H](C[C@H]1Nc1cnn(Cc3ccccn3)c(=O)c1Br)C2(C)C [compound 87]
17,63 nM,C[C@@H]1[C@H]2C[C@@H](C[C@H]1NC(=O)Cn1ncc(N[C@@H]3C[C@@H]4C[C@H]([C@H]3C)C4(C)C)c(Br)c1=O)C2(C)C [compound 32]
18,40 nM,"C[C@@H]1[C@H]2C[C@@H](C[C@H]1Nc1cnn(CC(=O)NCc3ccncc3)c(=O)c1C(=O)O)C2(C)C [Synthetic Example 406, 3-Oxo-2-{2-oxo-2-[(pyridin-4-ylmethyl)amino]ethyl}-5-{[(1R,2R,3R,5S)-2,6,6-trimethylbicyclo[3.1.1]hept-3-yl]amino}-2,3-dihydropyridazine-4-carboxylic Acid]"
19,30 nM,Cc1noc(C)c1CNC(=O)Cn1ncc(N[C@@H]2C[C@@H]3C[C@H]([C@H]2C)C3(C)C)c(Br)c1=O [compound 212]
20,3.1 nM,Cc1cnccc1CNC(=O)Cn1ncc(N[C@@H]2C[C@@H]3C[C@H]([C@H]2C)C3(C)C)c(Br)c1=O [compound 170]
21,38 nM,C[C@@H]1[C@H]2C[C@@H](C[C@H]1Nc1cnn(CC(=O)Nc3cccnc3)c(=O)c1Cl)C2(C)C [compound 227]
